In data set [1] the test system is Erysiphe graminis. f. sp. tritici. In words: Erysiphe test (wheat)/curative. The class given is in vivo. The note with it: curative, sprayed 48 hours after inoculation, application rate 250 g/ha, evaluation 7 days after inoculation. Here is the method: Erysiphe Test (Wheat)/Curative Solvent: 10 parts by weight of N-methyl-pyrrolidone Emulsifier: 0.6 parts by weight of alkylaryl polyglycol ether To produce a suitable preparation of active compound, 1 part by weight of active compound is mixed with the stated amounts of solvent and emulsifier, and the concentrate is diluted with water to the desired concentration. To test for curative activity, young plants are dusted with spores of Erysiphe graminis. f. sp. tritici. 48 hours after the inoculation, the plants are sprayed with the preparation of active compound at the stated application rate. The plants are placed in a greenhouse at a temperature of about 20° C. and a relative atmospheric humidity of about 80%, in order to promote the development of mildew […]. Evaluation is carried out 7 days after the inoculation.

In data set [2] the test system is Pseudocercosporella herpotrichoides. Nature of the data set: Pseudocercosporella herpotrichoides test (wheat)/protective. The note with it: protective, application rate 250 g/ha, evaluation 21 days after inoculation. It counts as in vivo. Here is the method: Pseudocercosporella Herpotrichoides Test (Wheat)/Protective Solvent: 10 parts by weight of N-methyl-pyrrolidone Emulsifier: 0.6 parts by weight of alkylaryl polyglycol ether To produce a suitable preparation of active compound, 1 part by weight of active compound is mixed with the stated amounts of solvent and emulsifier, and the concentrate is diluted with water to the desired concentration. To test for protective activity, young plants are sprayed with the preparation of active compound at the stated application rate. After the spray coating has dried on, the stem bases of the plants are inoculated with spores of Pseudocercosporella herpotrichoides. The plants are placed in a greenhouse at a temperature of about 10° C. and a relative atmospheric humidity of about 80%. Evaluation is carried out 21 days after the inoculation.

As for `CNC(=O)C(=NOC)C1=C(/C=C/c2ccccc2)CCC1` [compound (1)], the melting point was in the range of 135 to 140 °C. Besides, the efficacy in data set [1] was 75%. In data set [2], this compound showed an efficacy of 90%.

One may read the melting point as the temperature of the solid-liquid transition.

The record behind these values is patent US6437127B1, “Substituted cycloalkenes and their use as microbices, especially as fungicides” (Bayer Aktiengesellschaft, priority 1995, dated 2002).
